Laboratory results reported in ChEMBL document CHEMBL1201862, “PubChem BioAssay data set” (2004).
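Results reflect a 48-hour exposure of cells in 96-well plates to compound at five concentrations. GI50 is the concentration that inhibits growth by half.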 Calls of active or inactive are those of the source. No stated cut-off is given here; in the data, active = GI50 up to about 1.1 µM and inactive = higher.

Legend:
Assay in all cases: DTP human tumour cell line panel, 48 h
COLO 205 = system: COLO 205
SW-620 = system: SW-620
HOP-92 = system: HOP-92
RXF 393 = system: RXF 393
NCI-H460 = system: NCI-H460
SNB-19 = system: SNB-19
HCT-116 = system: HCT-116
NCI-H522 = system: NCI-H522
UACC-62 = system: UACC-62
IGROV-1 = system: IGROV-1
UACC-257 = system: UACC-257
SK-OV-3 = system: SK-OV-3
NCI-H226 = system: NCI-H226
Malme-3M = system: Malme-3M
XF498 = system: XF498
NCI-H23 = system: NCI-H23
UO-31 = system: UO-31
SK-MEL-28 = system: SK-MEL-28
OVCAR-5 = system: OVCAR-5
CAKI-1 = system: CAKI-1
DMS-273 = system: DMS-273
OVCAR-4 = system: OVCAR-4
SK-MEL-5 = system: SK-MEL-5
OVCAR-3 = system: OVCAR-3
KM12 = system: KM12
RPMI-8226 = system: RPMI-8226
LOX IMVI = system: LOX IMVI
TK-10 = system: TK-10
HOP-62 = system: HOP-62
HT-29 = system: HT-29
786-0 = system: 786-0
KM-20L2 = system: KM-20L2
HCT-15 = system: HCT-15
DLD-1 = system: DLD-1
M19-MEL = system: M19-MEL
U-251 = system: U-251
CCRF-CEM = system: CCRF-CEM
EKVX = system: EKVX
M14 = system: M14
HCC 2998 = system: HCC 2998
SF-268 = system: SF-268
SNB-75 = system: SNB-75
MOLT-4 = system: MOLT-4
RXF 631 = system: RXF 631
SF-539 = system: SF-539
A549 = system: A549
K562 = system: K562
SF-295 = system: SF-295
DMS-114 = system: DMS-114
HL-60 = system: HL-60
SK-MEL-2 = system: SK-MEL-2
SN12C = system: SN12C
OVCAR-8 = system: OVCAR-8
ACHN = system: ACHN
LXFL 529 = system: LXFL 529
A498 = system: A498
SNB-78 = system: SNB-78
HOP-18 = system: HOP-18

Measured: GI50

[O-][S+](c1ccc(O)cc1)c1ccc(O)cc1
> 100 µM: HCT-15
inactive: COLO 205 > 100 µM | SW-620 > 100 µM | HOP-92 > 100 µM | RXF 393 > 100 µM | NCI-H460 > 100 µM | SNB-19 > 100 µM | HCT-116 > 100 µM | NCI-H522 > 100 µM | UACC-62 > 100 µM | IGROV-1 > 100 µM | UACC-257 > 100 µM | SK-OV-3 > 100 µM | NCI-H226 > 100 µM | Malme-3M > 100 µM | XF498 > 100 µM | NCI-H23 > 100 µM | UO-31 > 100 µM | SK-MEL-28 > 100 µM | OVCAR-5 > 100 µM | CAKI-1 > 100 µM | DMS-273 > 100 µM | OVCAR-4 > 100 µM | SK-MEL-5 > 100 µM | OVCAR-3 > 100 µM | KM12 > 100 µM | RPMI-8226 > 100 µM | LOX IMVI > 100 µM | TK-10 > 100 µM | HOP-62 > 100 µM | HT-29 > 100 µM | 786-0 > 100 µM | KM-20L2 > 100 µM | DLD-1 > 100 µM | M19-MEL > 100 µM | U-251 > 100 µM | CCRF-CEM > 100 µM | EKVX > 100 µM | M14 > 100 µM | HCC 2998 > 100 µM | SF-268 > 100 µM | SNB-75 > 100 µM | MOLT-4 > 100 µM | RXF 631 > 100 µM | SF-539 > 100 µM | A549 > 100 µM | K562 > 100 µM | SF-295 > 100 µM | DMS-114 > 100 µM | HL-60 > 100 µM | SK-MEL-2 > 100 µM

CC(=O)n1c(=O)c2cc3c(=O)n(-c4cccc(C#N)c4)c(=O)c3cc2c1=O
inactive: COLO 205 > 100 µM | SW-620 > 100 µM | HOP-92 39.2 µM | RXF 393 > 100 µM | NCI-H460 > 100 µM | SN12C > 100 µM | SNB-19 67 µM | HCT-116 > 100 µM | OVCAR-8 > 100 µM | NCI-H522 > 100 µM | UACC-62 > 100 µM | IGROV-1 > 100 µM | UACC-257 > 100 µM | SK-OV-3 > 100 µM | NCI-H226 > 100 µM | Malme-3M > 100 µM | ACHN > 100 µM | NCI-H23 > 100 µM | UO-31 > 100 µM | SK-MEL-28 > 100 µM | OVCAR-5 > 100 µM | CAKI-1 > 100 µM | DMS-273 88.1 µM | OVCAR-4 > 100 µM | SK-MEL-5 > 100 µM | LXFL 529 > 100 µM | OVCAR-3 > 100 µM | KM12 > 100 µM | LOX IMVI > 100 µM | TK-10 > 100 µM | HOP-62 45.5 µM | HT-29 > 100 µM | 786-0 90.4 µM | KM-20L2 > 100 µM | DLD-1 > 100 µM | M19-MEL > 100 µM | U-251 24.2 µM | CCRF-CEM > 100 µM | EKVX > 100 µM | M14 > 100 µM | HCC 2998 > 100 µM | SF-268 > 100 µM | SNB-75 23.7 µM | RXF 631 > 100 µM | A498 > 100 µM | SF-539 > 100 µM | SNB-78 60.3 µM | A549 > 100 µM | K562 > 100 µM | SF-295 60.7 µM | DMS-114 > 100 µM | HL-60 > 100 µM | SK-MEL-2 > 100 µM | HOP-18 > 100 µM
> 100 µM: HCT-15

Cc1nn(-c2ccccc2)c(-c2ccccc2[N+](=O)[O-])c1CC#N
inactive: COLO 205 > 100 µM | SW-620 > 10 µM | HOP-92 27.8 µM | RXF 393 45 µM | NCI-H460 > 100 µM | SN12C > 100 µM | SNB-19 > 100 µM | OVCAR-8 > 100 µM | NCI-H522 22.2 µM | UACC-62 78.5 µM | IGROV-1 > 100 µM | UACC-257 > 100 µM | SK-OV-3 > 100 µM | Malme-3M 29.4 µM | ACHN > 100 µM | XF498 21.5 µM | NCI-H23 87.7 µM | UO-31 82.2 µM | SK-MEL-28 > 100 µM | OVCAR-5 > 100 µM | CAKI-1 > 100 µM | DMS-273 > 100 µM | OVCAR-4 > 100 µM | SK-MEL-5 7.87 µM | LXFL 529 > 100 µM | OVCAR-3 62.1 µM | KM12 > 100 µM | RPMI-8226 63.2 µM | LOX IMVI > 100 µM | TK-10 > 100 µM | HOP-62 > 100 µM | 786-0 > 100 µM | KM-20L2 > 100 µM | M19-MEL > 100 µM | CCRF-CEM > 100 µM | EKVX > 100 µM | M14 > 100 µM | HCC 2998 > 100 µM | SF-268 > 100 µM | SNB-75 > 100 µM | MOLT-4 67.3 µM | RXF 631 > 100 µM | SF-539 > 100 µM | SNB-78 > 100 µM | A549 > 100 µM | K562 59.2 µM | SF-295 > 100 µM | DMS-114 98.6 µM | HL-60 69.5 µM | SK-MEL-2 > 100 µM
> 100 µM: HCT-15
